Measurements reported in patent publication US5756107A, “Formulations and methods for reducing skin irritation” (Cosmederm Technologies, priority 1994, dated 1998).
Entries after “also recorded” stand apart in the source; their conditions may differ. Counter-ions that a name gives are not always drawn.

Experiments:
[1] = system: skin irritation; test: Inhibition of skin irritation by salts in Elizabeth Arden Visible Difference Refining Toner; type: in vivo; settings: topical solution in Elizabeth Arden Visible Difference Refining Toner, various amounts
Protocol: Cation salts of the invention were formulated at various concentrations in various commercially available topical cosmetic products.
Topical solution forms of potassium nitrate, potassium chloride, potassium citrate, lithium sulfate, lithium nitrate and lithium acetate were prepared by combining various amounts of the named salts with Elizabeth Arden Visible Difference Refining Toner (an alcohol-containing solution).

[2] = system: subject's skin (skin irritation caused by lactic acid); test: Lactic acid skin irritation challenge, double-blind randomized vehicle-controlled clinical trial (cumulative sensory irritation); type: in vivo, human; settings: for Percent Inhibition (average inhibition of cumulative irritation): cation salts at 250 mM, average over clinical tests of over 550 subjects, 7.5% lactic acid challenge; for anti-irritant activity (in words): clinical trials, topical; for Percent Inhibition: representative subject panels, cation concentrations of 250 mM, vehicle 10% EtOH
Protocol: The trials were conducted in a double blind, randomized, vehicle-controlled manner. Various formulations of the invention were tested in over 550 people.
Controls were performed by applying a corresponding formulation without any added cation to a contralateral portion of the subject's skin.
The following scaled scores were used for sensory assessment:
Cumulative irritation data are set forth in the following tables, and are depicted in FIGS. 9 and 10.

[3] = system: tooth sensitivity; settings: dentifrice, two to six weeks of continuous use; cited from earlier work
[4] = system: exposed tooth nerves; settings: cited from earlier work
[5] = system: sodium channels; settings: cell membranes; cited from earlier work
[6] = cited from earlier work
[7] = in vivo, po; cited from earlier work
[8] = system: brains of test animals; settings: applied directly to the brains of test animals; cited from earlier work
[9] = system: exposed tooth pulp; settings: exposed tooth pulp vs dentin; cited from earlier work

SMILES: CC(=O)O [Lithium acetate]
- inhibition of skin irritation (in words) [1]: effective to inhibit skin irritation
- Percent Inhibition (average inhibition of cumulative irritation) [2]: 70%
- anti-irritant activity (in words) [2]: particularly active as anti-irritants
- Percent Inhibition [2]: 67%

SMILES: O=C(O)O [Lithium carbonate, lithium carbonate]
- anti-irritant activity (in words) [2]: particularly active as anti-irritants
- Percent Inhibition [2]: 69%

SMILES: [Cl-].[Li+] [Lithium chloride]
- Percent Inhibition (average inhibition of cumulative irritation) [2]: 0%
- Percent Inhibition [2]: 6%

SMILES: O=[N+]([O-])[O-].[Li+] [Lithium nitrate]
- inhibition of skin irritation (in words) [1]: effective to inhibit skin irritation
- Percent Inhibition (average inhibition of cumulative irritation) [2]: 20%
- anti-irritant activity (in words) [2]: particularly active as anti-irritants
- Percent Inhibition [2]: 16%

SMILES: O=S(=O)([O-])[O-].[Li+].[Li+] [Lithium sulfate]
- inhibition of skin irritation (in words) [1]: effective to inhibit skin irritation
- Percent Inhibition (cumulative irritation, dose-response) ([2]; 31 mM): 2%
- Percent Inhibition (cumulative irritation, dose-response) ([2]; 62 mM): -7%
- Percent Inhibition (cumulative irritation, dose-response) ([2]; 125 mM): 16%
- Percent Inhibition (cumulative irritation, dose-response) ([2]; 250 mM): 27%
- Percent Inhibition (cumulative irritation, dose-response) ([2]; 500 mM): 30%
- Percent Inhibition (average inhibition of cumulative irritation) [2]: 35%
- anti-irritant activity (in words) [2]: overall efficacy of the subject formulations is evident; also recorded: particularly active as anti-irritants
- Percent Inhibition [2]: 39%

SMILES: [Cl-].[K+] [Potassium chloride]
- inhibition of skin irritation (in words) [1]: effective to inhibit skin irritation
- Percent Inhibition (average inhibition of cumulative irritation) [2]: 40%
- anti-irritant activity (in words) [2]: overall efficacy of the subject formulations is evident; also recorded: particularly active as anti-irritants
- Percent Inhibition [2]: 38%

SMILES: O=C([O-])[C@H](O)[C@@H](O)[C@H](O)[C@H](O)CO.[K+] [Potassium gluconate]
- Percent Inhibition (average inhibition of cumulative irritation) [2]: 25%
- anti-irritant activity (in words) [2]: particularly active as anti-irritants
- Percent Inhibition [2]: 25%

SMILES: O=[N+]([O-])[O-].[K+] [Potassium nitrate]
- inhibition of skin irritation (in words) [1]: effective to inhibit skin irritation
- Percent Inhibition (cumulative irritation, dose-response) ([2]; 31 mM): -3%
- Percent Inhibition (cumulative irritation, dose-response) ([2]; 125 mM): 18%
- Percent Inhibition (cumulative irritation, dose-response) ([2]; 250 mM): 29%
- Percent Inhibition (cumulative irritation, dose-response) ([2]; 500 mM): 60%
- Percent Inhibition (average inhibition of cumulative irritation) [2]: 30%
- anti-irritant activity (in words) [2]: particularly active as anti-irritants
- Percent Inhibition [2]: 29%
- tooth sensitivity [3]: reduce tooth sensitivity

SMILES: O=C(O)C(=O)O [Potassium oxalate, potassium oxalate]
- anti-irritant activity (in words) [2]: particularly active as anti-irritants
- Percent Inhibition [2]: 30%

SMILES: O=S(=O)([O-])[O-].[K+].[K+] [Potassium sulfate]
- Percent Inhibition (average inhibition of cumulative irritation) [2]: 15%
- Percent Inhibition [2]: 27%

SMILES: [Ca+2] [calcium]
- nerve electrical responses [4]: may suppress nerve electrical responses

SMILES: [Li+] [lithium (Li^+), lithium]
- block of sodium channels [5]: block sodium channels on cell membranes
- anti-irritant activity (in words) [2]: effective, when applied topically to the skin in appropriate concentrations and vehicles, to suppress the relatively severe stinging, burning, tingling, itching and/or erythema
- anti-irritant efficacy, effect of glycerol in the vehicle ([2]; preliminary studies, low concentration, vehicle includes glycerol): increased if the vehicle includes glycerol

SMILES: O=S(=O)([O-])[O-].[Mg+2] [magnesium sulfate]
- anesthesia or analgesia ([6]; intravenous): produces neither anesthesia nor even analgesia in humans

SMILES: [Mg+2] [magnesium]
- paralysis or depressed neural activity [7]: does not result in paralysis or depressed neural activity in healthy individuals
- nerve electrical responses [4]: may suppress nerve electrical responses
- paralysis of skeletal muscles ([6]; magnesium ion, intravenously-administered magnesium sulfate): induces paralysis of skeletal muscles
- neural or synaptic activity [8]: depressed neural or synaptic activity, and even a sleep-like state

SMILES: [K+] [potassium (K^+), potassium]
- nerve electrical responses [4]: evokes a transient electrical response followed by inhibition of excitability
- anti-irritant activity (in words) [2]: effective, when applied topically to the skin in appropriate concentrations and vehicles, to suppress the relatively severe stinging, burning, tingling, itching and/or erythema
- pain on application to tooth pulp or dentin [9]: pain is induced when potassium ion is applied to exposed tooth pulp but not when applied to the dentin

SMILES: O=C([O-])CC(O)(CC(=O)[O-])C(=O)[O-].[K+].[K+].[K+] [potassium citrate]
- inhibition of skin irritation (in words) [1]: effective to inhibit skin irritation

SMILES: [Cl-].[Cl-].[Sr+2] [strontium chloride, reference compound]
- tooth sensitivity [3]: reduce tooth sensitivity
